The test system of series [1] is Escherichia coli. The series can be described thus: Antibacterial activity against Escherichia coli incubated for 24 hrs by agar dilution method. The class given is functional.
In series [2] the test system is Mycobacterium tuberculosis. The series can be described thus: Antibacterial activity against Mycobacterium tuberculosis H37Rv ATCC 27294 assessed as reduction in mycobacterial growth incubated for 5 days by MABA method. The class given is functional. The note with it: H37Rv ATCC 27294, 120 h.
Series [3] has as its system Pseudomonas aeruginosa. The series can be described thus: Antibacterial activity against Pseudomonas aeruginosa incubated for 24 hrs by agar dilution method. The class given is functional.
The test system of series [4] is Staphylococcus aureus. The series can be described thus: Antibacterial activity against Staphylococcus aureus incubated for 24 hrs by agar dilution method. In kind it is functional.
The nature of series [5]: Cytotoxicity against African green monkey Vero cells assessed as cell growth inhibition at 6.25 ug/ml incubated for 72 hrs by MTT assay relative to control. The class given is cell-based. The note with it: chlorocebus sabaeus, read-out: GI.
Series [6] can be described thus: Selectivity index, ratio of IC50 for African green monkey Vero cells to MIC for Mycobacterium tuberculosis H37Rv ATCC 27294. The class given is toxicity. The conditions noted are these: read-out: Selectivity Index.
Series [7] relates to Mycobacterium tuberculosis. The series can be described thus: Potency index, ratio of ciprofloxacin MIC to test compound MIC against Mycobacterium tuberculosis H37Rv ATCC 27294. The class given is functional.
Series [8] relates to Mycobacterium tuberculosis. The series can be described thus: Potency index, ratio of streptomycin MIC to test compound MIC against Mycobacterium tuberculosis H37Rv ATCC 27294. The class given is functional.
Series [9] deals with Mycobacterium tuberculosis. The series can be described thus: Potency index, ratio of pyrazinamide MIC to test compound MIC against Mycobacterium tuberculosis H37Rv ATCC 27294. The class given is functional.
Series [10] has as its system Vero. The series can be described thus: Cytotoxicity against African green monkey Vero cells assessed as reduction in cell viability incubated for 72 hrs by MTT assay. The class given is cell-based. The note with it: Chlorocebus sabaeus.

Molecules are shown by their SMILES. ≈ marks a conversion by molar mass, not a printed value.

15 compounds from ChEMBL document CHEMBL4390659, “Molecular hybridization approach for phenothiazine incorporated 1,2,3-triazole hybrids as promising antimicrobial agents: Design, synthesis, molecular docking and in silico ADME studies” (Eur J Med Chem, 2019) can be followed below.

As for `Cc1ccc(Cn2cc(CO/N=C/c3ccc4c(c3)Sc3ccccc3N4C)nn2)cc1`, the MIC in [1] amounted to 50 µg/mL (≈ 113 µM); in series [2], 56.6 µM; in series [3], 100 µg/mL (≈ 226 µM); in series [4], 25 µg/mL (≈ 56.6 µM).
Take `Fc1ccccc1Cn1cc(CN2c3ccccc3Sc3ccccc32)nn1`: in series [5], the inhibition at 72 h, 6.25 ug/ml came out at 3.33%. Besides, the selectivity ratio in series [6] came to 278. In addition, the Ratio is on record as 4 in series [7], 4 in series [8] and 2 in series [9]. The MIC came to 12.5 µg/mL (≈ 32.2 µM) in [1], 1.6 µg/mL in [2], 25 µg/mL (≈ 64.4 µM) in series [3] and 12.5 µg/mL (≈ 32.2 µM) in series [4]. The IC50 in series [10] is 924 µg/mL (≈ 2380 µM).
Take `CN[C@@H]1[C@H](O[C@H]2[C@H](O[C@H]3[C@H](O)[C@@H](O)[C@H](N=C(N)N)[C@@H](O)[C@@H]3N=C(N)N)O[C@@H](C)[C@]2(O)C=O)O[C@@H](CO)[C@H](O)[C@H]1O` [STREPTOMYCIN]: in series [2], the minimal inhibitory concentration (MIC) was found to be 6.25 µg/mL.
Turning to `NNC(=O)c1ccncc1` [ISONIAZID], the MIC in [2] came out at 3.12 µg/mL.
For the compound `COc1ccc(Cn2cc(CN3c4ccccc4Sc4ccccc43)nn2)cc1`, the inhibition at 72 h, 6.25 ug/ml in series [5] came out at 7.57%. For the same compound, the selectivity ratio in series [6] came out at 797. Moreover, the Ratio in series [7] amounted to 4; in series [8] it was 4; in series [9], 2. In addition, the MIC in series [1] came to 25 µg/mL (≈ 62.4 µM); in series [2], 1.6 µg/mL; in [3], 50 µg/mL (≈ 125 µM); in series [4], 25 µg/mL (≈ 62.4 µM). The IC50 in [10] is 6040 µg/mL (≈ 15100 µM).
Take `Cc1ccc(Cn2cc(CN3c4ccccc4Sc4ccccc43)nn2)cc1`: the MIC in series [1] amounted to 100 µg/mL (≈ 260 µM); in series [2] it was 6.25 µg/mL; in [3] it was 100 µg/mL (≈ 260 µM); in series [4] it was 50 µg/mL (≈ 130 µM).
For `CN1c2ccccc2Sc2cc(/C=N/OCc3cn(Cc4ccccc4)nn3)ccc21`, the MIC in series [1] amounted to 100 µg/mL (≈ 234 µM); in series [2] it was 58.4 µM; in series [3], 50 µg/mL (≈ 117 µM); in series [4], 50 µg/mL (≈ 117 µM).
For `COc1ccc(Cn2cc(COCc3ccc4c(c3)Sc3ccccc3N4C)nn2)cc1`, the MIC in series [1] was 100 µg/mL (≈ 225 µM); in series [2] it was 56.2 µM; in series [3], 50 µg/mL (≈ 112 µM); in series [4], 50 µg/mL (≈ 112 µM).
As for `c1ccc(Cn2cc(CN3c4ccccc4Sc4ccccc43)nn2)cc1`, the MIC in [1] was 50 µg/mL (≈ 135 µM); in [2], 6.25 µg/mL; in series [3] it was 100 µg/mL (≈ 270 µM); in series [4], 50 µg/mL (≈ 135 µM).
Consider `CN1c2ccccc2Sc2cc(COCc3cn(Cc4ccc(C#N)cc4)nn3)ccc21`, for which the MIC stood at 25 µg/mL (≈ 56.9 µM) in [1], 28.4 µM in series [2], 25 µg/mL (≈ 56.9 µM) in series [3] and 12.5 µg/mL (≈ 28.4 µM) in series [4].
As to `N#Cc1ccc(Cn2cc(CN3c4ccccc4Sc4cc(/C=N/NC(=O)c5ccc([N+](=O)[O-])cc5)ccc43)nn2)cc1`, in series [5], the inhibition at 72 h, 6.25 ug/ml was determined as 7.57%. Further, in series [6], the selectivity ratio turned out to be 91.5. The Ratio in [7] was 4; in series [8] it was 4; in series [9], 2. In addition, the MIC amounted to 50 µg/mL (≈ 85.2 µM) in [1], 2.72 µM in series [2], 50 µg/mL (≈ 85.2 µM) in series [3] and 25 µg/mL (≈ 42.6 µM) in [4]. The IC50 in series [10] was found to be 693 µg/mL (≈ 1180 µM).
Regarding `N#Cc1ccc(Cn2cc(CN3c4ccccc4Sc4cc(/C=N/NC(=O)c5ccccc5)ccc43)nn2)cc1`, the inhibition at 72 h, 6.25 ug/ml in series [5] was 13.4%. In series [6], the selectivity ratio was 32.3. Besides, the Ratio in series [7] stood at 4; in [8], 4; in [9], 2. Besides, the MIC in series [1] was 25 µg/mL (≈ 46.2 µM); in series [2], 2.95 µM; in series [3] it was 25 µg/mL (≈ 46.2 µM); in series [4] it was 12.5 µg/mL (≈ 23.1 µM). Further, in series [10], the half-maximal inhibitory concentration (IC50) came out at 434 µg/mL (≈ 802 µM).
As to `N#Cc1ccc(Cn2cc(CN3c4ccccc4Sc4cc(/C=N/NC(=O)c5ccncc5)ccc43)nn2)cc1`, the inhibition at 72 h, 6.25 ug/ml in series [5] was found to be 5.13%. In addition, the selectivity ratio in series [6] worked out at 253. Also, the Ratio is listed as 4 in [7], 4 in [8] and 2 in [9]. For the same compound, the MIC in series [1] is 25 µg/mL (≈ 46.1 µM); in series [2], 2.94 µM; in series [3] it was 25 µg/mL (≈ 46.1 µM); in series [4], 12.5 µg/mL (≈ 23 µM). For the same compound, in [10], the IC50 is 1300 µg/mL (≈ 2390 µM).
As to `N#Cc1ccc(Cn2cc(CN3c4ccccc4Sc4cc(/C=N/NC(=O)c5cnccn5)ccc43)nn2)cc1`, the inhibition at 72 h, 6.25 ug/ml in series [5] came out at 12.3%. For the same compound, the selectivity ratio in series [6] was 195. Also, the Ratio in series [7] turned out to be 4; in series [8], 4; in series [9] it was 2. For the same compound, the MIC in [1] came out at 50 µg/mL (≈ 92 µM); in [2], 2.94 µM; in [3] it was 100 µg/mL (≈ 184 µM); in [4], 50 µg/mL (≈ 92 µM). Besides, the concentration for half-maximal inhibition (IC50) in series [10] turned out to be 2400 µg/mL (≈ 4420 µM).
With `N#Cc1ccc(Cn2cc(CN3c4ccccc4Sc4ccc(C(F)(F)F)cc43)nn2)cc1`, the inhibition at 72 h, 6.25 ug/ml in series [5] was determined as 5%. Besides, the selectivity ratio in [6] was 417. Moreover, the values for the Ratio in [7], in series [8] and in series [9] were 4, 4 and 2, respectively. Also, the MIC in series [2] worked out at 1.6 µg/mL. Also, in series [10], the IC50 was found to be 2080 µg/mL (≈ 4500 µM).
